Experimental data from patent publication US10010560B2, “Small molecule HSP70 inhibitors” (THE TRUSTEES OF THE UNIVERSITY OF PENNSYLVANIA, priority 2014, dated 2018).

Key:
Format in all cases: cell-based
[1] = test system: human melanoma cell lines; experiment: MTT assays of human melanoma cell lines; conditions: several melanoma cell lines, 72 h
Experimental: FIGS. 2A-2D illustrate the cytotoxicity of PET-16 to human tumor cells and its inhibition on E. coli growth. FIG. 2A is a line graph with data obtained from MTT assays of human melanoma cell lines treated with the indicated concentrations of PES or PET-16 for 72 h. The corresponding cell survival is normalized to vehicle (DMSO) treatment. Average and standard deviation (s.d.) from three independent experiments are shown. FIG. 2B are bar graphs of human melanoma (A875) cells and nontransformed human (IMR90) fibroblasts that were treated with DMSO, 10 μM PES or 10 μM PET-16 for 24 h. […] FIG. 2C is a line graph illustrating the growth of E. coli DH5α treated with different concentrations of PES or PET-16 for 6 h at 43° C. Error bars represent the s.d. of four independent experiments. FIG. 2D is a bar graph illustrating the growth of E. coli DH5α treated with DMSO, 30 μM PET-16 or 30 μM TPP for 6 h at 43° C. Error bars represent the s.d. of four independent experiments.
MTT assays of human melanoma cell lines, as indicated, treated with the indicated concentration of PET-16 for 72 hours. The corresponding cell survival is normalized to vehicle (DMSO) treatment. Average and standard deviation (s.d.) from three independent experiments are shown.

cathepsin L = experiment: Western blot of cathepsin L processing; conditions: 24 h treatment
Description: FIGS. 4A-4L illustrate that PET-16 impairs proteostasis. […] There is a general absence of obvious nuclei in PET-16 treated tumor cells. […] FIGS. 4D and 4E are gels of whole-cell extracts (WCE) prepared from human melanoma A875 (D) or 451 Lu (E) cells treated with DMSO, PES or PET-16 that were immunoprecipitated using an anti-HSP70 antibody. The excised band of about 70 kDa shown in the Coomassie gel is HSP70, as confirmed by liquid chromatography—tandem mass spectrometry analysis. FIGS. 4F-4I are western blots of cell lines were treated with DMSO, PES or PET-16 for 24 h and immunoblotted for the indicated proteins. FIG. 4J are western blots of indicated melanomas pretreated with DMSO, PES or PET-16, followed by treatment with IL-6. Cell extracts were immunoblotted for the proteins indicated. Inhibition of IL-6 induced STAT3 and STAT1 phosphorylation by PET-16. FIG. 4K is a western blot analysis indicating altered processing of cathepsin L from the larger precursor form to the smaller mature form in the indicated cells following PET-16 treatment for 24 h. FIG. 4L is a western blot of the human melanoma 451 Lu cells treated with DMSO, PES or PET-16 for 24 h. Cells were harvested in 1% NP40-containing lysis buffer, fractionated into detergent-soluble and detergent-insoluble preparations, and assayed by western blot for ubiquitin. […]

HSP70 = HSP70 (Homo sapiens, UniProt P0DMV8); experiment: B-PES pull-down assay in cultured tumor cells; set-up: endogenous in cells; conditions: H1299 cells pretreated with excess (8×) compound for 1 h, then 20 μM B-PES
Description: FIGS. 3A-3L illustrate that PET-16 binds directly to ADP-bound HSP70 and DnaK. Specifically, FIGS. 3A-3H are isothermal calorimetric titration (ITC) assays of the indicated compounds (NRLLLTG—SEQ ID NO: 7, PES or PET-16) with purified HSP70-ADP, DnaK-ADP or HSP70-ATP proteins. The data are representative of three independent experiments. FIGS. 3I and 3J are ITC assays for the interaction between HSP70 (aa 386-616 of SEQ ID NO: 2) protein and PET-16 (I) or TPP (J). Binding constants (Kd values) are shown (average and s.d. from three independent experiments). PET-16 also binds directly to the purified, full-length, nucleotide-free HSP70 protein, with a reported dissociation constant of 5.2+/−0.1 micromolar, which is the average and standard deviation from two independent experiments (data not shown). FIG. 3K is ITC assay of HSP70 protein preincubated with ADP and PES for 1 h. The mixture was titrated into the sample cell containing PET-16. The data are representative of three independent ITC experiments. FIG. 3L are western blots of human lung carcinoma (H1299) cells that were pretreated with DMSO or excess (8×) PET-16 for 1 h prior to the addition of 20 μM B-PES for 5 h and examined for the expression of HSP70 or BCL-xL. B-PES-containing complexes were captured by Avidin resins and immunoblotted either with anti-HSP70 or anti-BCL-xL antibody. […]

HSP70, sequence (P0DMV8 whole entry, the tested form may be a part): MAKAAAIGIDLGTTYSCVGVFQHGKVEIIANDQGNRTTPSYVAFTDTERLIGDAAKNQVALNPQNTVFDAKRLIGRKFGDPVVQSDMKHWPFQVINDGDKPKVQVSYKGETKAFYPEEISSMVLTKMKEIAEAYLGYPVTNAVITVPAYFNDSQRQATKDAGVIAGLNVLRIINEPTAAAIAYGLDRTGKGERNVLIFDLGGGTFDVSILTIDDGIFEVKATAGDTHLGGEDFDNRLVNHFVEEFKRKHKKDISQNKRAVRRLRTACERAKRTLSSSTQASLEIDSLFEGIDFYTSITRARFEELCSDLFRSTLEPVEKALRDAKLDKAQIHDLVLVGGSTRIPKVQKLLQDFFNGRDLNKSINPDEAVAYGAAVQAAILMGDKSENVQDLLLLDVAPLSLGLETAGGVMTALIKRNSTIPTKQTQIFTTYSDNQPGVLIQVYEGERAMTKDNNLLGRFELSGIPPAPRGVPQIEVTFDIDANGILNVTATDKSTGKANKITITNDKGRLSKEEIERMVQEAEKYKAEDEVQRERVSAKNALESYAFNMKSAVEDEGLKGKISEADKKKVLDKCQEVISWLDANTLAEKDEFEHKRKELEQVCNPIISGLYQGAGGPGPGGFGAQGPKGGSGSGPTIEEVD

C(#C[P+](c1ccccc1)(c1ccccc1)c1ccccc1)c1ccccc1.[Br-] [PET-16, triphenyl(phenylethynyl)phosphonium bromide]
IC50 [1]: 0.5 to 1.5 µM | cathepsin L processing (cathepsin L): accumulation of the precursor procathepsin L and a markedly reduced abundance of the smaller, mature form | amount of HSP70 in complex with B-PES (HSP70): clearly reduced
